The test system of test [1] is incurable, locally advanced, recurrent or metastatic solid tumors. The conditions noted are these: i.v. every 3 weeks, cited from earlier work.
Test [2] relates to SK-BR-3 cells. Briefly: MTT proliferation assay. Format: cell-based, human. The conditions noted are these: 20 nM, 4 days, positive control.
Protocol: MTT assay is a non-radioactive assay based on the cleavage of the soluble yellow tetrazolium salt MTT (3-[4,5-Dimethylthiazol-2-yl]-2,5-diphenyltetrazolium bromide; Thiazolyl Blue) by mitochondrial dehydrogenases of viable cells. […] The absorption signal is a direct measure of viable cells in the culture.
Briefly, SK-BR-3 cells were grown for 2 days in 96-well flat bottom plates. […] Supernatant was completely removed and MTT was added. Cells were incubated for 2 hours with MTT at 37° C. in a humidified CO2 incubator. The supernatant was removed and cells were lysed using HCl and 2-propanol containing lysis buffer for 1 h at room temperature in the dark. Absorption at 570 nm/630 nm was measured in a plate reader Infinite F200 (Tecan Austria GmbH).
Test [3] in a line: Prevention of infusion related reactions by pre-medication. The format is in vivo, human. Conditions: pretreatment with paracetamol 1000 mg evening before and 1 h before, optionally methylprednisolone 125 mg 30 min before. As for the experimental part: Without the use of steroids, IRRs occurred in all but one patient, at least once (grade 1 to 3). Therefore, it is recommended to use a pre-medication comprising and preferably consisting of steroids and paracetamol and to restrict the respective pre-medication to the first infusion and the single next infusion following an IRR. Preferably, paracetamol is given on the evening before and one hour before the infusion with the reduced […] anti-HER2 antibody. Steroids (for example 125 mg methylprednisolone) preferably will be administered 30 minutes before the infusion to the patient.

Turning to “pertuzumab: anti-HER2 antibody, HER dimerisation inhibitor”, the confirmed partial responses in test [1] is 2 Patients. For the same compound, the tumor regression in test [1] (patients evaluable for response) is 3 of 20. Take `CC(=O)O[C@H]1C(=O)[C@@]2(C)[C@H]([C@H](OC(=O)c3ccccc3)[C@]3(O)C[C@H](OC(=O)[C@H](O)[C@@H](NC(=O)c4ccccc4)c4ccccc4)C(C)=C1C3(C)C)[C@]1(OC(C)=O)CO[C@@H]1C[C@@H]2O` [Taxol, paclitaxel]: in test [2], the “proliferation compared to the medium control” value worked out at 6%. As to `CC(=O)Nc1ccc(O)cc1` [paracetamol, N-(4-hydroxyphenyl)acetamide], in test [3], the “patients who did not show any IRR upon Fuc− trastuzumab infusion” value was approximately 50%.

These data come from US20150166664A1, “NOVEL THERAPEUTIC TREATMENTS WITH ANTI-HER2 ANTIBODIES HAVING A LOW FUCOSYLATION” (Glycotope GmbH, priority 2012, published 2015).
